ChEMBL document CHEMBL3352505, “Pentacycloundecylamines and conjugates thereof as chemosensitizers and reversed chloroquine agents” (Bioorg Med Chem Lett, 2014)

Legend:
CHO = assay: Cytotoxicity against CHO cells by MTT assay; assay type: cell-based, Cricetulus griseus; conditions: for IC50: Cricetulus griseus, CHO
Plasmodium falciparum [1] = assay: Antimicrobial activity against chloroquine-sensitive Plasmodium falciparum D10; assay type: functional
Plasmodium falciparum [2] = assay: Antimicrobial activity against chloroquine-resistant Plasmodium falciparum Dd2; assay type: functional
[3] = Selectivity index, ratio of IC50 for CHO cells to IC50 for chloroquine-sensitive Plasmodium falciparum D10; assay type: toxicity, cell-based; conditions: hamster; read-out: Ratio IC50
Plasmodium falciparum [4] = assay: Resistance index, ratio of IC50 for chloroquine-resistant Plasmodium falciparum Dd2 to IC50 for chloroquine-sensitive Plasmodium falciparum D10; assay type: functional
Plasmodium falciparum [5] = assay: Ratio of chloroquine IC50 to compound IC50 for chloroquine-resistant Plasmodium falciparum Dd2; assay type: functional
Plasmodium falciparum [6] = assay: Resistance modification index, ratio of IC50 for chloroquine in presence of 10 uM compound to IC50 for chloroquine alone for chloroquine-resistant Plasmodium falciparum Dd2; assay type: functional
Plasmodium falciparum [7] = assay: Resistance modification index, ratio of IC50 for chloroquine in presence of 1 uM compound to IC50 for chloroquine alone for chloroquine-resistant Plasmodium falciparum Dd2; assay type: functional

Row | SMILES | IC50 (CHO) [nM] | IC50 (Plasmodium falciparum [1]) [nM] | IC50 (Plasmodium falciparum [2]) [nM] | selectivity ratio [3] | Ratio IC50 (Plasmodium falciparum [4]) | Ratio IC50 (Plasmodium falciparum [5]) | Activity (CHO; chinese hamster, cho) | Ratio IC50 (Plasmodium falciparum [6]) | Ratio IC50 (Plasmodium falciparum [7])
1 | OC12C3C4CC5C6C4C1C6C(C53)N2CCNc1ccnc2cc(Cl)ccc12 (configuration not stated) | 9540 | 3.74 | 27.6 | 2550 | 7 | 5 | – | – | –
2 | OC12C3C4CC5C6C4C1C6C(C53)N2CCCCNc1ccnc2cc(Cl)ccc12 (configuration not stated) | 2390 | 8.45 | 187 | 283 | 22 | – | – | – | –
3 | OC12C3C4CC5C6C4C1C6C(C53)N2CCCCCCNc1ccnc2cc(Cl)ccc12 (configuration not stated) | 2630 | 17.6 | 253 | 149 | 14 | – | – | – | –
4 | c1ccc(CNC23OC4C5C6CC(C7C6C4C72)C53)cc1 (configuration not stated) | – | > 2000 | > 2000 | – | – | – | Non-toxic | 0.48 | 0.6
5 | CC[C@H]1CN2CCc3cc(OC)c(OC)cc3[C@@H]2C[C@@H]1C[C@H]1NCCc2cc(OC)c(OC)cc21 [EMETINE] | 61 | – | – | – | – | – | – | – | –
